What follows are compounds tested against NS3 (Hepatitis C virus, UniProt A3EZJ3) (assay: Inhibitory activity hepatitis C virus NS3 protease.).
Design: species or system Hepacivirus hominis

NS3, sequence (A3EZJ3 whole entry): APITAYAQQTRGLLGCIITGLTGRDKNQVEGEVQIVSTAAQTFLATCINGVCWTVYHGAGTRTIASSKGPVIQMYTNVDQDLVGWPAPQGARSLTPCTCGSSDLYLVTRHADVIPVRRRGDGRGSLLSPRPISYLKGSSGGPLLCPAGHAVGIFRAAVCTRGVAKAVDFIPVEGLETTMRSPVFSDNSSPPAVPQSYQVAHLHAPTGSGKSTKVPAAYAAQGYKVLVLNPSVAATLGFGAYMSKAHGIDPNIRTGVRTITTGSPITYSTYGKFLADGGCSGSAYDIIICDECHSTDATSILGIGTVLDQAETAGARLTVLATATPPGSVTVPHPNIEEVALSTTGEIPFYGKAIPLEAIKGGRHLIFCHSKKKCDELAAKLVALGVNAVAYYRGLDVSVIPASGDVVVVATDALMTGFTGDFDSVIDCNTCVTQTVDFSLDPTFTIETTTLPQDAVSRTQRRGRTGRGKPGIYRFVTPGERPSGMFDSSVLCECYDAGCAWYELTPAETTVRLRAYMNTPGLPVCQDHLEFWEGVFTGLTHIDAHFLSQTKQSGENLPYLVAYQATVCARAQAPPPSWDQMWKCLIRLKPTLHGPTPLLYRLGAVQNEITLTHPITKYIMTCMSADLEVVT

SMILES | IC50 [µM]
CC[C@H](NC(=O)[C@@H]1C[C@@](C)(NC(=O)Nc2cccc(C(=O)OC)c2)c2ncc(NCc3cccc(C(F)(F)F)c3)c(=O)n21)B1OC2C3CC(C[C@]2(C)O1)C3(C)C (some centres not stated) | 1.77
CC[C@H](NC(=O)[C@@H]1C[C@@](C)(NC(=O)Nc2ccccc2Cl)c2ncc(NCc3cccc(C(F)(F)F)c3)c(=O)n21)B1OC2C3CC(C[C@]2(C)O1)C3(C)C (some centres not stated) | 0.37
CC[C@H](NC(=O)[C@@H]1C[C@@](C)(NC(=O)Cc2ccccc2)c2ncc(NCc3cccc(C(F)(F)F)c3)c(=O)n21)B1OC2C3CC(C[C@]2(C)O1)C3(C)C (some centres not stated) | 2.4
CC[C@H](NC(=O)[C@@H]1C[C@@](C)(CC(=O)Nc2nccc3ccccc23)c2ncc(NCc3cccc(C(F)(F)F)c3)c(=O)n21)B1OC2C3CC(C[C@]2(C)O1)C3(C)C (some centres not stated) | 0.44
CC[C@H](NC(=O)[C@@H]1C[C@@](C)(NC(=O)Oc2ccccc2)c2ncc(NCc3cccc(C(F)(F)F)c3)c(=O)n21)B1OC2C3CC(C[C@]2(C)O1)C3(C)C (some centres not stated) | 1.4
CC[C@H](NC(=O)[C@@H]1C[C@@](C)(CC(=O)Nc2ccccc2C(N)=O)c2ncc(NCc3cccc(C(F)(F)F)c3)c(=O)n21)B1OC2C3CC(C[C@]2(C)O1)C3(C)C (some centres not stated) | 0.15
CCOC(=O)c1ccccc1NC(=O)N[C@]1(C)C[C@@H](C(=O)N[C@@H](CC)B2OC3C4CC(C[C@]3(C)O2)C4(C)C)n2c1ncc(NCc1cccc(C(F)(F)F)c1)c2=O (some centres not stated) | 0.1
CC[C@H](NC(=O)[C@@H]1CCc2ncc(NCc3cccc(C(F)(F)F)c3)c(=O)n21)B1OC2C3CC(C[C@]2(C)O1)C3(C)C (some centres not stated) | 7
CC[C@H](NC(=O)[C@@H]1C[C@@](C)(NC(=O)Nc2cccc3ccccc23)c2ncc(NCc3cccc(C(F)(F)F)c3)c(=O)n21)B1OC2C3CC(C[C@]2(C)O1)C3(C)C (some centres not stated) | 0.27
CC[C@H](NC(=O)[C@@H]1C[C@@](C)(NC(=O)Nc2ccc(Cl)cc2)c2ncc(NCc3cccc(C(F)(F)F)c3)c(=O)n21)B1OC2C3CC(C[C@]2(C)O1)C3(C)C (some centres not stated) | 1.1
CC[C@H](NC(=O)[C@@H]1C[C@@](C)(CC(=O)Nc2cccc3ccccc23)c2ncc(NCc3cccc(C(F)(F)F)c3)c(=O)n21)B1OC2C3CC(C[C@]2(C)O1)C3(C)C (some centres not stated) | 0.17
CC[C@H](NC(=O)[C@@H]1C[C@@](C)(CC(=O)Nc2ccccc2[N+](=O)[O-])c2ncc(NCc3cccc(C(F)(F)F)c3)c(=O)n21)B1OC2C3CC(C[C@]2(C)O1)C3(C)C (some centres not stated) | 2.53
CCOC(=O)c1cccc(NC(=O)N[C@]2(C)C[C@@H](C(=O)N[C@@H](CC)B3OC4C5CC(C[C@]4(C)O3)C5(C)C)n3c2ncc(NCc2cccc(C(F)(F)F)c2)c3=O)c1 (some centres not stated) | 1.55
CC[C@H](NC(=O)[C@@H]1C[C@@](C)(NC(=O)Nc2ccccc2Oc2ccccc2)c2ncc(NCc3cccc(C(F)(F)F)c3)c(=O)n21)B1OC2C3CC(C[C@]2(C)O1)C3(C)C (some centres not stated) | 0.3
CC[C@H](NC(=O)[C@@H]1C[C@@](C)(CC(=O)Nc2ccccc2)c2ncc(NCc3cccc(C(F)(F)F)c3)c(=O)n21)B1OC2C3CC(C[C@]2(C)O1)C3(C)C (some centres not stated) | 0.17
CC[C@H](NC(=O)[C@@H]1C[C@@](C)(CC(=O)Nc2ccccc2C(=O)NC)c2ncc(NCc3cccc(C(F)(F)F)c3)c(=O)n21)B1OC2C3CC(C[C@]2(C)O1)C3(C)C (some centres not stated) | 0.18
CC[C@H](NC(=O)[C@@H]1C[C@@](C)(NC(=O)Nc2ccccc2-c2ccccc2)c2ncc(NCc3cccc(C(F)(F)F)c3)c(=O)n21)B1OC2C3CC(C[C@]2(C)O1)C3(C)C (some centres not stated) | 30
CC[C@H](NC(=O)[C@@H]1C[C@@](C)(CC(=O)Nc2ccccc2C(=O)N(C)C)c2ncc(NCc3cccc(C(F)(F)F)c3)c(=O)n21)B1OC2C3CC(C[C@]2(C)O1)C3(C)C (some centres not stated) | 1.46
CC[C@H](NC(=O)[C@@H]1C[C@@](C)(NC(=O)c2ccccc2)c2ncc(NCc3cccc(C(F)(F)F)c3)c(=O)n21)B1OC2C3CC(C[C@]2(C)O1)C3(C)C (some centres not stated) | 3.4

SMILES | IC50 [µM]
CC[C@H](NC(=O)[C@@H]1C[C@@](C)(NC(=O)Nc2ccc(F)cc2)c2ncc(NCc3cccc(C(F)(F)F)c3)c(=O)n21)B1OC2C3CC(C[C@]2(C)O1)C3(C)C (some centres not stated) | 1.03
CC[C@H](NC(=O)[C@@H]1C[C@@](C)(CC(=O)Nc2ccccc2C(=O)OC)c2ncc(NCc3cccc(C(F)(F)F)c3)c(=O)n21)B1OC2C3CC(C[C@]2(C)O1)C3(C)C (some centres not stated) | 0.1
CC[C@H](NC(=O)[C@@H]1C[C@@](C)(NC(=O)Nc2ccccc2SC)c2ncc(NCc3cccc(C(F)(F)F)c3)c(=O)n21)B1OC2C3CC(C[C@]2(C)O1)C3(C)C (some centres not stated) | 0.71
CC[C@H](NC(=O)[C@@H]1C[C@@](C)(NC(=O)Nc2ccccc2)c2ncc(NCc3cccc(C(F)(F)F)c3)c(=O)n21)B1OC2C3CC(C[C@]2(C)O1)C3(C)C (some centres not stated) | 0.79
CC[C@H](NC(=O)[C@@H]1C[C@@](C)(NC(=O)Nc2ccccc2C)c2ncc(NCc3cccc(C(F)(F)F)c3)c(=O)n21)B1OC2C3CC(C[C@]2(C)O1)C3(C)C (some centres not stated) | 0.78
CC[C@H](NC(=O)[C@@H]1C[C@@](C)(NC(=O)Nc2ccccc2C(=O)OC)c2ncc(NCc3cccc(C(F)(F)F)c3)c(=O)n21)B1OC2C3CC(C[C@]2(C)O1)C3(C)C (some centres not stated) | 0.08
CC[C@H](NC(=O)[C@@H]1C[C@@](C)(NC(=O)Nc2cccc(F)c2)c2ncc(NCc3cccc(C(F)(F)F)c3)c(=O)n21)B1OC2C3CC(C[C@]2(C)O1)C3(C)C (some centres not stated) | 0.5
CC[C@H](NC(=O)[C@@H]1C[C@@](C)(NC(=O)Nc2ccccc2OC)c2ncc(NCc3cccc(C(F)(F)F)c3)c(=O)n21)B1OC2C3CC(C[C@]2(C)O1)C3(C)C (some centres not stated) | 0.36
CC[C@H](NC(=O)[C@@H]1C[C@@](C)(NC(=O)NCc2ccccc2)c2ncc(NCc3cccc(C(F)(F)F)c3)c(=O)n21)B1OC2C3CC(C[C@]2(C)O1)C3(C)C (some centres not stated) | 1.2
CCOC(=O)c1ccc(NC(=O)N[C@]2(C)C[C@@H](C(=O)N[C@@H](CC)B3OC4C5CC(C[C@]4(C)O3)C5(C)C)n3c2ncc(NCc2cccc(C(F)(F)F)c2)c3=O)cc1 (some centres not stated) | 1.1
CC[C@H](NC(=O)[C@@H]1C[C@@](C)(CC(=O)Nc2ccccc2OC)c2ncc(NCc3cccc(C(F)(F)F)c3)c(=O)n21)B1OC2C3CC(C[C@]2(C)O1)C3(C)C (some centres not stated) | 0.2
CC[C@H](NC(=O)[C@@H]1C[C@@](C)(CC(=O)Nc2cccc(SC)c2)c2ncc(NCc3cccc(C(F)(F)F)c3)c(=O)n21)B1OC2C3CC(C[C@]2(C)O1)C3(C)C (some centres not stated) | 0.09
CCOc1ccccc1NC(=O)N[C@]1(C)C[C@@H](C(=O)N[C@@H](CC)B2OC3C4CC(C[C@]3(C)O2)C4(C)C)n2c1ncc(NCc1cccc(C(F)(F)F)c1)c2=O (some centres not stated) | 0.16
CC[C@H](NC(=O)[C@@H]1C[C@@](C)(NC(=O)Nc2cccc(SC)c2)c2ncc(NCc3cccc(C(F)(F)F)c3)c(=O)n21)B1OC2C3CC(C[C@]2(C)O1)C3(C)C (some centres not stated) | 0.13
CC[C@H](NC(=O)[C@@H]1C[C@@](C)(NC(=O)Nc2ccccc2C(=O)O)c2ncc(NCc3cccc(C(F)(F)F)c3)c(=O)n21)B1OC2C3CC(C[C@]2(C)O1)C3(C)C (some centres not stated) | 6.4
CC[C@H](NC(=O)[C@@H]1C[C@@](C)(NC(=O)Nc2ccccc2[N+](=O)[O-])c2ncc(NCc3cccc(C(F)(F)F)c3)c(=O)n21)B1OC2C3CC(C[C@]2(C)O1)C3(C)C (some centres not stated) | 0.18
CC[C@H](NC(=O)[C@@H]1C[C@@](C)(NC(=O)Nc2ccc(Oc3ccccc3)cc2)c2ncc(NCc3cccc(C(F)(F)F)c3)c(=O)n21)B1OC2C3CC(C[C@]2(C)O1)C3(C)C (some centres not stated) | 4.74
CC[C@H](NC(=O)[C@@H]1C[C@@](C)(NC(=O)Nc2ccc(SC)cc2)c2ncc(NCc3cccc(C(F)(F)F)c3)c(=O)n21)B1OC2C3CC(C[C@]2(C)O1)C3(C)C (some centres not stated) | 2.36

Source: ChEMBL document CHEMBL1136606, “Design and synthesis of bicyclic pyrimidinone-based HCV NS3 protease inhibitors” (Bioorg Med Chem Lett, 2003)
